In patent publication EP0378755B1, “Heterocyclically substituted alpha-aryl acryl acid methyl esters and their use” (BASF Aktiengesellschaft, priority 1988, dated 1990):

Columns and labels:
Type in all cases: in vivo
[1] = tested on: Pyrenophora teres; test: Efficacy against Pyrenophora teres on barley seedlings, protective spray; conditions: 0,0125 gew.%ige Spritzbrühe; barley "Igri"; inoculated 24 h after spraying
Protocol: Wirksamkeit gegen Pyrenophora teres
Gerstenkeimlinge der Sorte "Igri" wurden im Zweiblattstadium mit wäßrigen Suspensionen, die 80 % Wirkstoff und 20 % Emulgator in der Trockensubstanz enthielten, tropfnaß gespritzt. Nach 24 Stunden wurden die Pflanzen mit einer Sporensuspension des Pilzes Pyrenophora teres inokuliert und für 48 Stunden in eine Klimakammer mit hoher Luftfeuchtigkeit bei 18°C gestellt. Anschließend wurden die Pflanzen im Gewächshaus bei 20 bis 22°C und 70 % relativer Luftfeuchtigkeit für weitere 5 Tage kultiviert. Dann wurde das Ausmaß des Befalls ermittelt.

[2] = tested on: Plasmopara viticola; test: Efficacy against Plasmopara viticola on potted vine leaves, protective spray; conditions: 0,0125 gew.%ige Spritzbrühe; vines "Müller Thurgau"; infected 8 days after spraying
Excerpt: Wirksamkeit gegen Plasmopara viticola
Blätter von Topfreben der Sorte "Müller Thurgau" wurden mit wäßriger Spritzbrühe, die 80 % Wirkstoff und 20 % Emulgiermittel in der Trockensubstanz enthielt, besprüht. Um die Wirkungsdauer der Wirkstoffe beurteilen zu können, wurden die Pflanzen nach dem Antrocknen des Spritzbelages 8 Tage im Gewächshaus aufgestellt. Erst dann wurden die Blätter mit einer Zoosporenaufschwemmung von Plasmopara viticola (Rebenperonospora) infiziert. Danach wurden die Reben zunächst für 48 Stunden in einer wasserdampfgesättigten Kammer bei 24°C und anschließend für 5 Tage in einem Gewächshaus mit Temperaturen zwischen 20 und 30°C aufgestellt. Nach dieser Zeit wurden die Pflanzen zur Beschleunigung des Sporangienträgerausbruches abermals für 16 Stunden in der feuchten Kammer aufgestellt. Dann erfolgte die Beurteilung des Ausmaßes des Pilzausbruches auf den Blattunterseiten.

[3] = tested on: Septoria nodorum; test: Efficacy against Septoria nodorum on wheat plants, protective spray; conditions: 0,05 gew.%ige Spritzbrühe; wheat "Frühgold"; inoculated 20 h after spraying, assessed after one week
Protocol: Wirksamkeit gegen Septoria nodorum
Weizenpflanzen der Sorte "Frühgold" wurden im Ein-Blatt-Stadium mit wäßriger Wirkstoffaufbereitung, die 80 % Wirkstoff und 20 % Emulgiermittel in der Trockensubstanz enthielt, bis zur Tropfnässe besprüht. 20 Stunden nach dem Antrocknen des Spritzbelages wurden die Pflanzen mit einer wäßrigen Sporensuspension von Septoria nodorum bis zur Tröpfchenbildung inokuliert und für eine Woche in eine Klimakammer bei Temperaturen zwischen 17 und 19°C und einer relativen Luftfeuchtigkeit von ungefähr 90 bis 95 % gestellt. Dann wurde das Ausmaß der Symptomentwicklung ermittelt.

[4] = tested on: Ornithodorus moubata; test: Ornithodorus moubata (tick) contact test by dipping; conditions: after 48 h, ca. 25°C
Excerpt: Ornithodorus moubata (Zecke)
(§1) Versuchsart: Kontaktwirkung
Verwendet wurden junge Zecken, die eine Blutmahlzeit hinter sich hatten (Durchmesser 1,5 bis 2 mm). Diese Tiere nahm man mit Hilfe eines Saugrohres einzeln auf, wobei eine starke Lichtquelle die aktiven Tiere aus den Häutungsresten trieb. Je 5 Zecken wurden in einem Papierbeutel für 5 Sekunden in die wäßrige Wirkstoffaufbereitung getaucht (Wirkstoffgehalt in ppm). Die Beutel hing man danach frei auf und ermittelte nach 48 Stunden die Wirkung. Dabei wurden die Beutel an eine starke Lichtquele (60 W-Birne) gehalten; die lebenden Tiere versuchten auszuweichen und waren leicht zu erkennen. Die Versuchstemperatur betrug ca. 25°C. Man bestimmte die Mortalität in %.

[5] = tested on: Prodenia litura; test: Prodenia litura feeding test on dipped maize pieces; conditions: after 24 h
Protocol: Prodenia litura, ägypt. Baumwollwurm
Die Versuche wurden in 250 ml Plastikbechern durchgeführt. Dabei setzte man 2 Raupen in die Gefäße und bot Stücke von Maispflanzen, die man für 5 Sekunden in die wäßrige Wirkstoffaufbereitung getaucht hatte, als Futter an. Wirkstoffgehalt in ppm. Nach 24 Stunden beurteilte man die Mortalitätsrate in %.

[6] = tested on: Musca domestica; test: Musca domestica continuous contact test in glass dish; conditions: after 4 h
Protocol: Musca domestica (Stubenfliegen)
Versuchsart: Dauerkontakt
Beide Teile einer Glasschale von 10 cm Durchmesser wurden mit insgesamt 1 ml der acetonischen Lösung der Wirkstoffe benetzt. Wirkstoffgehalt der Lösung in ppm. Nach Verdunsten des Lösungsmittels brachte man je 10 Fliegen in die Schalen, schloß sie und zählte nach 4 Stunden die Tiere, die sich in Rückenlage befanden und bestimmte die Mortalitätsrate in %.

[7] = tested on: Plutella maculipennis; test: Plutella maculipennis contact test on dipped cabbage leaves; conditions: after 48 h, 4th instar larvae
Protocol: Plutella maculipennis (Kohlschabe)
as §1
Junge Kohlblätter wurden 3 sec. in die wäßrige Aufbereitung der Prüfsubstanz getaucht (Wirkstoffgehalt in ppm) und auf einen mit 0,5 ml Wasser angefeuchteten Rundfilter (Φ 9 cm) in eine Glasschale gelegt (Φ 10 cm). Darauf wurde das Blatt mit 10 Raupen im 4. Larvenstadium besetzt und die Glasschale geschlossen. Nach 48 Stunden beurteilte man die Mortalität in %.

[8] = tested on: Tetranychus telarius; test: Tetranychus telarius contact test, spray test on bush beans; conditions: 120 h, after 5 days
Protocol: Tetranychus telarius, Rote Spinne, Kontaktwirkung, Spritzversuch
Buschbohnen in Töpfen, die das zweite Blattpaar zeigen, werden mit der wäßrigen Wirkstoffaufbereitung tropfnaß gespritzt. Die Pflanzen werden von allen Seiten mit insgesamt 50 ml Spritzbrühe besprüht. Die Pflanzen weisen einen starken Milbenbefall und reichliche Eiablage auf.
Die Wirkung wird nach 5 Tagen mittels Binokular ermittelt. Dabei wird darauf geachtet, ob alle Entwicklungsstadien der Tiere gleichmäßig erfaßt sind. Die Pflanzen stehen während der 5 Tage unter normalen Gewächshausbedingungen.

Row | SMILES | fungizide Wirkung [1] [%] | fungizide Wirkung [2] [%] | fungizide Wirkung [3] [%] | also measured
1 | CO/C=C(/C(=O)OC)c1ccccc1/C=C/c1cnn(-c2ccc(F)cc2)c1 [compound 98] | 95 | 95 | 95 | 
2 | CO/C=C(/C(=O)OC)c1ccccc1/C=C/c1cnn(-c2ccc(C)cc2)c1 [compound 30] | 95 | 95 | 95 | 
3 | CO/C=C(/C(=O)OC)c1ccccc1/C=C/c1ccn(-c2ccc(Cl)cc2)c1 [Verbindung Nr. 4, Alpha-2-[2'-(N-para-Chlorphenyl-pyrrol-3''-yl)-ethen-1'-yl]-phenyl-β-methoxy-acrylsäuremethylester] |  |  | 95 | % Mort. ([4]; 400 ppm): 80%; mortality at 40 ppm ([5]; 40 ppm): 100%; mortality at 2 ppm [6]: 100%; mortality at 100 ppm ([7]; 100 ppm): 100%
4 | CO/C=C(/C(=O)OC)c1ccccc1/C=C/c1cc(C(C)C)no1 [compound 41] |  |  | 95 | % Mort. ([4]; 1000 ppm): 80%; mortality at 100 ppm [8]: 100%
5 | CO/C=C(/C(=O)OC)c1ccccc1/C=C/c1cc(-c2ccc(C)cc2)no1 [compound 45] | 95 | 95 |  | % Mort. ([4]; 1000 ppm): 60%; mortality at 40 ppm ([8]; 40 ppm): 80%
6 | CO/C=C(/C(=O)OC)c1ccccc1/C=C/c1nnc(C(C)C)o1 [compound 69] | 95 |  | 95 | 
7 | COC=C(C(=O)OC)c1ccccc1Oc1nc2ccccc2o1 [B, α-[2-(Benzoxazol-2'-yl-oxy)-phenyl]-β-methoxy-acrylsäuremethylester] |  |  |  | % Mort. ([4]; 1000 ppm): 0%; mortality at 1000 ppm ([8]; 1000 ppm): 0%; mortality at 1000 ppm [5]: 80%; mortality at 4 ppm ([6]; 4 ppm): 80%; mortality at 200 ppm ([7]; 200 ppm): 0%; mortality at 1000 ppm [7]: 80%
8 | CO/C=C(/C(=O)OC)c1ccccc1/C=C/c1cc(-c2c(F)cccc2Cl)no1 [compound 102] | 95 | 95 | 95 | 
9 | CO/C=C(/C(=O)OC)c1ccccc1/C=C/c1nc(-c2ccc(Cl)cc2)no1 [compound 84] | 95 |  | 95 | 
10 | CO/C=C(/C(=O)OC)c1ccccc1/C=C/c1cc(-c2ccc(C#N)cc2)no1 [compound 46] | 95 | 95 |  | mortality at 400 ppm ([8]; 400 ppm): 100%
11 | COC=C(C(=O)OC)c1ccccc1C=Cc1cc(C2CC2)no1 [Verbindung Nr. 42, Alpha-2-[2′-(3˝-Cyclopropyl-isoxazol-5˝-yl)-ethen-1′-yl]-phenyl-β-methoxy-acrylsäuremethylester] |  | 95 |  | 
12 | CO/C=C(/C(=O)OC)c1ccccc1/C=C/c1cnn(-c2ccc(Br)cc2)c1 [compound 99] | 95 | 95 | 95 | 
13 | COC=C(C(=O)OC)c1ccccc1C=Cc1ccc(Cl)cc1 [A, 2-(β-Methoxy-α-methoxycarbonylvinyl)-4'-chlor-stilben] |  |  |  | % Mort. ([4]; 1000 ppm): 0%; mortality at 1000 ppm [5]: 0%; mortality at 2 ppm [6]: 0%; mortality at 1000 ppm [7]: 0%
14 | CO/C=C(/C(=O)OC)c1ccccc1/C=C/c1cc(C)no1 [compound 100] | 95 | 95 |  | 
15 | CO/C=C(/C(=O)OC)c1ccccc1/C=C/c1cnn(-c2ccc(Cl)cc2)c1 [compound 31] | 95 | 95 | 95 | 
16 | COC=C(C(=O)OC)c1ccccc1Oc1cncc(Cl)n1 [C, α-2-(6-Chlorpyrazin-2-oxy)-phenyl-β-methoxy-acrylsäuremethylester, reference compound] | 55 | 60 |  | 
17 | CO/C=C(/C(=O)OC)c1ccccc1/C=C/c1cc(-c2ccccc2)no1 [compound 101] |  | 95 |  | % Mort. ([4]; 1000 ppm): 60%; mortality at 100 ppm [8]: 100%
